Test results taken from publication PMC12090182, “Repurposing of the RIPK1-Selective Benzo[1,4]oxazepin-4-one Scaffold for the Development of a Type III LIMK1/2 Inhibitor” (ACS Chemical Biology, 2025).

Assays:
Assay in all cases: biochemical
Assay type in all cases: binding
[1] = target: 468 kinases including some pathogenic mutants (Homo sapiens, UniProt Q9Y6E0); conditions: MST3 (Entrez STK24), 100 nM; read-out: Percent Control
[2] = target: 468 kinases including some pathogenic mutants (Homo sapiens, UniProt P00533, G719S); conditions: read-out: Percent Control
[3] = target: 468 kinases including some pathogenic mutants (Homo sapiens, UniProt P49137); conditions: MAPKAPK2 (Entrez MAPKAPK2), 100 nM; read-out: Percent Control
[4] = target: 468 kinases including some pathogenic mutants (Homo sapiens, UniProt Q07002); conditions: read-out: Percent Control
[5] = target: 468 kinases including some pathogenic mutants (Homo sapiens, UniProt P07949, V804L); conditions: read-out: Percent Control
[6] = target: 468 kinases including some pathogenic mutants (Homo sapiens, UniProt P19784); conditions: CSNK2A2 (Entrez CSNK2A2), 100 nM; read-out: Percent Control
[7] = target: 468 kinases including some pathogenic mutants (Homo sapiens, UniProt Q9UPZ9); conditions: ICK (Entrez ICK), 100 nM; read-out: Percent Control
[8] = target: 468 kinases including some pathogenic mutants (Homo sapiens, UniProt Q9P286); conditions: PAK7 (Entrez PAK7), 100 nM; read-out: Percent Control
[9] = target: 468 kinases including some pathogenic mutants (Homo sapiens, UniProt Q8IYT8); conditions: ULK2 (Entrez ULK2), 1000 nM; read-out: Percent Control
[10] = target: 468 kinases including some pathogenic mutants (Homo sapiens, UniProt P27448); conditions: MARK3 (Entrez MARK3), 100 nM; read-out: Percent Control
[11] = target: 468 kinases including some pathogenic mutants (Homo sapiens, UniProt P45985); conditions: MEK4 (Entrez MAP2K4), 1000 nM; read-out: Percent Control
[12] = target: 468 kinases including some pathogenic mutants (Homo sapiens, UniProt Q9UEE5); conditions: DRAK1 (Entrez STK17A), 100 nM; read-out: Percent Control
[13] = target: 468 kinases including some pathogenic mutants (Homo sapiens, UniProt P42336, E542K); conditions: read-out: Percent Control
[14] = target: 468 kinases including some pathogenic mutants (Homo sapiens, UniProt P51957); conditions: NEK4 (Entrez NEK4), 1000 nM; read-out: Percent Control
[15] = target: 468 kinases including some pathogenic mutants (Homo sapiens, UniProt P07949); conditions: RET (Entrez RET), 1000 nM; read-out: Percent Control
[16] = target: 468 kinases including some pathogenic mutants (Homo sapiens, UniProt Q86Z02); conditions: HIPK1 (Entrez HIPK1), 100 nM; read-out: Percent Control
[17] = target: 468 kinases including some pathogenic mutants (Homo sapiens, UniProt Q96PN8); conditions: TSSK3 (Entrez TSSK3), 1000 nM; read-out: Percent Control
[18] = target: 468 kinases including some pathogenic mutants (Homo sapiens, UniProt P43405); conditions: SYK (Entrez SYK), 100 nM; read-out: Percent Control
[19] = target: 468 kinases including some pathogenic mutants (Homo sapiens, UniProt Q86V86); conditions: PIM3 (Entrez PIM3), 100 nM; read-out: Percent Control
[20] = target: 468 kinases including some pathogenic mutants (Homo sapiens, UniProt Q9HBY8); conditions: SGK2 (Entrez SGK2), 100 nM; read-out: Percent Control
[21] = target: 468 kinases including some pathogenic mutants (Homo sapiens, UniProt Q02763); conditions: TIE2 (Entrez TEK), 1000 nM; read-out: Percent Control
[22] = target: 468 kinases including some pathogenic mutants (Homo sapiens, UniProt Q12852); conditions: DLK (Entrez MAP3K12), 100 nM; read-out: Percent Control
[23] = target: 468 kinases including some pathogenic mutants (Homo sapiens, UniProt P51817); conditions: PRKX (Entrez PRKX), 100 nM; read-out: Percent Control
[24] = target: 468 kinases including some pathogenic mutants (Homo sapiens, UniProt Q16816); conditions: PHKG1 (Entrez PHKG1), 100 nM; read-out: Percent Control
[25] = target: 468 kinases including some pathogenic mutants (Homo sapiens, UniProt P21709); conditions: EPHA1 (Entrez EPHA1), 100 nM; read-out: Percent Control
[26] = target: 468 kinases including some pathogenic mutants (Homo sapiens, UniProt P42336, Q546K); conditions: read-out: Percent Control
[27] = target: 468 kinases including some pathogenic mutants (Homo sapiens, UniProt P08581, Y1235D); conditions: read-out: Percent Control
[28] = target: 468 kinases including some pathogenic mutants (Homo sapiens, UniProt Q13177); conditions: PAK2 (Entrez PAK2), 100 nM; read-out: Percent Control
[29] = target: 468 kinases including some pathogenic mutants (Homo sapiens, UniProt Q86Y07); conditions: VRK2 (Entrez VRK2), 1000 nM; read-out: Percent Control
[30] = target: 468 kinases including some pathogenic mutants (Homo sapiens, UniProt Q9H1R3); conditions: MYLK2 (Entrez MYLK2), 100 nM; read-out: Percent Control

468 kinases including some pathogenic mutants (Homo sapiens, UniProt Q86Z02), sequence (Q86Z02 whole entry, change not shown): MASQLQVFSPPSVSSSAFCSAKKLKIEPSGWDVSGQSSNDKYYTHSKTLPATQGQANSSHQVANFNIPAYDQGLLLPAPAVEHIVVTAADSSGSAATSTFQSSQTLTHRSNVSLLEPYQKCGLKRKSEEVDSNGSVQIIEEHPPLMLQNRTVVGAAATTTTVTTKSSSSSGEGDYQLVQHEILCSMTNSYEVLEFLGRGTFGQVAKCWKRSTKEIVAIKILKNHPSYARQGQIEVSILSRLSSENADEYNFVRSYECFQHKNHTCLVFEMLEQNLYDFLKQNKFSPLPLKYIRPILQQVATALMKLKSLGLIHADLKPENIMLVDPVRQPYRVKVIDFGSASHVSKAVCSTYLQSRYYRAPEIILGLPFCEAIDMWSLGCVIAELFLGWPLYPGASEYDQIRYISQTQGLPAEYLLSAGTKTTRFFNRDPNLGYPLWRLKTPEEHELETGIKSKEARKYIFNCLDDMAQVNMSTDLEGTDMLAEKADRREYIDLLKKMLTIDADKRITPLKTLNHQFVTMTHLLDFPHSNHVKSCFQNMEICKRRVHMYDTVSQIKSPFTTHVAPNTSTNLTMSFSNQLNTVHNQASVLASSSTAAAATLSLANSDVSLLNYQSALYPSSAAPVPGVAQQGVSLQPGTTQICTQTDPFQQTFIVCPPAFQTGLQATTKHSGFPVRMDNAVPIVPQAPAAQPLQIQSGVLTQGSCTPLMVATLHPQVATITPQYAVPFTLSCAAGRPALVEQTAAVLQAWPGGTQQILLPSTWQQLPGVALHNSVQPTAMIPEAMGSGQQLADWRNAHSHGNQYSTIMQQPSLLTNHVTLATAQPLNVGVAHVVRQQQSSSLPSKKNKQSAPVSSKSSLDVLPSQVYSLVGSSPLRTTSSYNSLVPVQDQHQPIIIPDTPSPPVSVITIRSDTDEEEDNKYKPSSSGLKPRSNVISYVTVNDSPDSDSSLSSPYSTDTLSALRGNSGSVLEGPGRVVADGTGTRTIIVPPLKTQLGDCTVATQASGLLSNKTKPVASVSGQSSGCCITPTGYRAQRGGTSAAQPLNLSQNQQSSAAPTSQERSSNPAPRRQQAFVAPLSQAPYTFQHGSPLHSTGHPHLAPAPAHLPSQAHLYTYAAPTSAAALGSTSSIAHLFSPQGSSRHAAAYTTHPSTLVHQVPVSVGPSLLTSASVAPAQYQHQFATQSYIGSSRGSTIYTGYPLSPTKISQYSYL
468 kinases including some pathogenic mutants (Homo sapiens, UniProt P45985), sequence (P45985 whole entry, change not shown): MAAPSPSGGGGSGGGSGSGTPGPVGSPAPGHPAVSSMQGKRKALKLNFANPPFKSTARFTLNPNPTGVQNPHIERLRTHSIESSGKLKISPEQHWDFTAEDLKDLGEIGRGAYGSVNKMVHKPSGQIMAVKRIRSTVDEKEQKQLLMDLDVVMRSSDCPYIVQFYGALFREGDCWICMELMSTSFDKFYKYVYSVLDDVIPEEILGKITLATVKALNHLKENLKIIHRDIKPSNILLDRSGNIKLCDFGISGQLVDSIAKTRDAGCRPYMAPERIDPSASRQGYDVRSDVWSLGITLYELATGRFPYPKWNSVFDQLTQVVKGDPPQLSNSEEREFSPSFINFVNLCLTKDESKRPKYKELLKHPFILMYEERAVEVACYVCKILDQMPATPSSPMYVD
468 kinases including some pathogenic mutants (Homo sapiens, UniProt Q07002), sequence (Q07002 whole entry, stated change not applied): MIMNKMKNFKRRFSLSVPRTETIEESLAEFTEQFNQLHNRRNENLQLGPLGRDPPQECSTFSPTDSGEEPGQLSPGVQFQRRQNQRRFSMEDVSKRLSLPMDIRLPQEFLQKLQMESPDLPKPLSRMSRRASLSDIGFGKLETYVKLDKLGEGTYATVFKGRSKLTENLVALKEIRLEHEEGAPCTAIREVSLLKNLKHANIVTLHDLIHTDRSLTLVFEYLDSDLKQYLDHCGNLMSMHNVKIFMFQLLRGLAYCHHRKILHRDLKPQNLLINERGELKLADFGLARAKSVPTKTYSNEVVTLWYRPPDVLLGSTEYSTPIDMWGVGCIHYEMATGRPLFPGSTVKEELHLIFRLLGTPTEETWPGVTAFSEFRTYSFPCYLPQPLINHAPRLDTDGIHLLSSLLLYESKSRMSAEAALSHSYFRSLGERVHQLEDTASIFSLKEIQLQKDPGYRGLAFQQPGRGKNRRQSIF
468 kinases including some pathogenic mutants (Homo sapiens, UniProt P51957), sequence (P51957 whole entry, change not shown): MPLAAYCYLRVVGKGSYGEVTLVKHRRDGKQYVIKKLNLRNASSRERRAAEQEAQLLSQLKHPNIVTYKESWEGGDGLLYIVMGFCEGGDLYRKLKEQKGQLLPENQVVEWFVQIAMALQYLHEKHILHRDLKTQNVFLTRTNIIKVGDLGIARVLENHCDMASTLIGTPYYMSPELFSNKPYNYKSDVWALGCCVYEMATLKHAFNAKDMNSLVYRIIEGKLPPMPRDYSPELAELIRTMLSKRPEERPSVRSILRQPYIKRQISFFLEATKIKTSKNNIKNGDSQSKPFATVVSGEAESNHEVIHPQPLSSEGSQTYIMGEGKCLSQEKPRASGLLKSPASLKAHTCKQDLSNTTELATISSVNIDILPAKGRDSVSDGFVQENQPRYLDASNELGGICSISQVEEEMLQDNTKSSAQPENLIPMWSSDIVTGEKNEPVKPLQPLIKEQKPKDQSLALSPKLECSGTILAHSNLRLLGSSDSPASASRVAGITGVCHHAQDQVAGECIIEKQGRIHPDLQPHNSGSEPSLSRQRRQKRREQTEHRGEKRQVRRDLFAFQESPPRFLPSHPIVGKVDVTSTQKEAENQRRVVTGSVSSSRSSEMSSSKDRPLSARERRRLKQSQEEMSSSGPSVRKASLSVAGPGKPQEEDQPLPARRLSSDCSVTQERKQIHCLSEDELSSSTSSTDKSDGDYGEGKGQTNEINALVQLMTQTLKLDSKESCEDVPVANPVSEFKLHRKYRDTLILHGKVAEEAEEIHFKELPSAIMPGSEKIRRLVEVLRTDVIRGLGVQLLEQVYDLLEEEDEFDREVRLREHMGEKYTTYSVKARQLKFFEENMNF
468 kinases including some pathogenic mutants (Homo sapiens, UniProt Q86Y07), sequence (Q86Y07 whole entry, change not shown): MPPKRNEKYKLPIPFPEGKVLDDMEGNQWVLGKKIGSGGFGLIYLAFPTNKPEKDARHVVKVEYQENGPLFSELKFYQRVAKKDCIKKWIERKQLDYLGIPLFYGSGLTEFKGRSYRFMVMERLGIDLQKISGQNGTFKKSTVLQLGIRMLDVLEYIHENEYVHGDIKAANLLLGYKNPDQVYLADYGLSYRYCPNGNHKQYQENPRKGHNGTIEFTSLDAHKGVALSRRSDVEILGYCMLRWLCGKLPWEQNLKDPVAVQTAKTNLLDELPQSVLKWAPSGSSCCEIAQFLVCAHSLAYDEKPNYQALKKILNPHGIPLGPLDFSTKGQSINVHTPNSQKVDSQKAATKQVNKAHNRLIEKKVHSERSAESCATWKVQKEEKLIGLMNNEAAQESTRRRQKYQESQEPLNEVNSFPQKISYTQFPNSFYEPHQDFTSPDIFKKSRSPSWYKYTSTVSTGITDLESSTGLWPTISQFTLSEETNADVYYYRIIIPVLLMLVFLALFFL
468 kinases including some pathogenic mutants (Homo sapiens, UniProt Q13177), sequence (Q13177 whole entry, change not shown): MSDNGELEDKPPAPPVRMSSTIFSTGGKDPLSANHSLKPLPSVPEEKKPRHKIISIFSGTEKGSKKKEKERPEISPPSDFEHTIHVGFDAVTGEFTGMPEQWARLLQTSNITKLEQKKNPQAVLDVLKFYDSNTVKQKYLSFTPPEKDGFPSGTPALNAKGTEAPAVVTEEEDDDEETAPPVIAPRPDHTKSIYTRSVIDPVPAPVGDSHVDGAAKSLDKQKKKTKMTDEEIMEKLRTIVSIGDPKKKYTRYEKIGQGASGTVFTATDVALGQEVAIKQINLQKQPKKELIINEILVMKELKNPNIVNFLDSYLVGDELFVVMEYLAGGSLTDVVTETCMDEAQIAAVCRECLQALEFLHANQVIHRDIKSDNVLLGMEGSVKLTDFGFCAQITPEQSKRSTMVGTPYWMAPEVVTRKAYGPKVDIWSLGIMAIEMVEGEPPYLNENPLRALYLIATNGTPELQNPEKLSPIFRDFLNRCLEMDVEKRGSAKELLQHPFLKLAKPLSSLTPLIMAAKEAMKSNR
468 kinases including some pathogenic mutants (Homo sapiens, UniProt Q96PN8), sequence (Q96PN8 whole entry, change not shown): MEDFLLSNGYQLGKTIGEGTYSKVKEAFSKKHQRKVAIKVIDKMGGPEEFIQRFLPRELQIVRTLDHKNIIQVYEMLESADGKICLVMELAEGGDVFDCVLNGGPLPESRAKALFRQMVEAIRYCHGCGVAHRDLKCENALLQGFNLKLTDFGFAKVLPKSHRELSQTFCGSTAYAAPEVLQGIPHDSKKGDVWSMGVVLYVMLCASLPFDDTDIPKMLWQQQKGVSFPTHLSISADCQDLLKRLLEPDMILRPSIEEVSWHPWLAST
468 kinases including some pathogenic mutants (Homo sapiens, UniProt Q16816), sequence (Q16816 whole entry, change not shown): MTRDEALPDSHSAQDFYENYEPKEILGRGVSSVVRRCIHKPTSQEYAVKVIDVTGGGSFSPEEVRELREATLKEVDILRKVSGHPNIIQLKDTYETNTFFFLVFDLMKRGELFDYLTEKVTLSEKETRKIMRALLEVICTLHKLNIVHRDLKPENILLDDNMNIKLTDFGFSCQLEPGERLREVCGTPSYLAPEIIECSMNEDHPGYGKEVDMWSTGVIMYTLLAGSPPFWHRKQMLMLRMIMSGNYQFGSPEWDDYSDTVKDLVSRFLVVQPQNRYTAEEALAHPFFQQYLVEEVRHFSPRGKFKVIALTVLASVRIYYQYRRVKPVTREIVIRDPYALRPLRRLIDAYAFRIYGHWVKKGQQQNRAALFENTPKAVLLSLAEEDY

CN1C(=O)[C@@H](N2CCc3c(nn(Cc4ccccc4)c3C(N)=O)C2=O)COc2cc(Cl)ccc21 [Compound 10, (S)-2-benzyl-6-(8-chloro-5-methyl-4-oxo-2,3,4,5-tetrahydrobenzo[b][1,4]oxazepin-3-yl)-7-oxo-4,5,6,7-tetrahydro-2H-pyrazolo[3,4-c]pyridine-3-carboxamide]
remaining activity at 0.1 µM [1]: 97% | remaining activity at 0.1 µM [2]: 100% | remaining activity at 0.1 µM [3]: 53% | remaining activity at 0.1 µM [4]: 100% | remaining activity at 1 µM [5]: 100% | remaining activity at 0.1 µM [6]: 74% | remaining activity at 0.1 µM [7]: 100% | remaining activity at 0.1 µM [8]: 80% | remaining activity at 1 µM [9]: 100% | remaining activity at 0.1 µM [10]: 100% | remaining activity at 1 µM [11]: 100% | remaining activity at 0.1 µM [12]: 84% | remaining activity at 0.1 µM [13]: 62% | remaining activity at 1 µM [14]: 100% | remaining activity at 1 µM [15]: 100% | remaining activity at 0.1 µM [16]: 73% | remaining activity at 1 µM [17]: 100% | remaining activity at 0.1 µM [18]: 100% | remaining activity at 0.1 µM [19]: 87% | remaining activity at 0.1 µM [20]: 75% | remaining activity at 1 µM [21]: 100% | remaining activity at 0.1 µM [22]: 72% | remaining activity at 0.1 µM [23]: 77% | remaining activity at 0.1 µM [24]: 94% | remaining activity at 0.1 µM [25]: 91% | remaining activity at 0.1 µM [26]: 76% | remaining activity at 0.1 µM [27]: 87% | remaining activity at 0.1 µM [28]: 88% | remaining activity at 1 µM [29]: 100% | remaining activity at 0.1 µM [30]: 90%
